Test results from patent EP4755890A1, “OXO-TRICYCLIC DERIVATIVE AND PHARMACEUTICAL USE THEREOF” (Haisco Pharmaceutical Group Co., Ltd., priority 2023, dated 2025).
Like-named read-outs stand apart in the source and are kept apart here.

Tests used:
HT-29 cells = assay: HT-29 cell proliferation inhibition assay (CellTiter-Glo); type: cell-based; conditions: Homo sapiens, 96 h, 4 days, read-out: Inhibitory activity against HT-29 cell proliferation IC50
Method: The culture conditions for HT-29 cells were as follows: DMEM + 10% FBS + 1% penicillin-streptomycin, and the cells were cultured in an incubator with 5% CO2 at 37°C. On the first day, the HT-29 cells in the exponential growth phase were collected and plated in 96-well cell culture plates at a density of 1000 cells/well (180 µL/well). The plates were cultured overnight in an incubator with 5% CO2 at 37°C. T0 wells were plated simultaneously during the plating process. The next day, 20 µL of compounds at different concentrations were added to each well (nine compound concentration gradients, one DMSO well, and one blank well; each compound concentration was plated in triplicate), and the final concentration of DMSO in each well was 0.1%. The plates were cultured in an incubator with 5% CO2 at 37°C for 4 days. On the same day of compound addition, the T0 plate was detected using the CellTiter-Glo Kit, and the detected value was recorded as RLU0. After the culture was completed, 100 µL of detection solution (Cell Viability Assay, Promega) was added to each well. The plates were incubated at room temperature for 10 minutes with slow shaking. The chemiluminescence reading was read using a BMG microplate reader (PHERAstar FSX). The results were processed according to Formula (4) to calculate the proliferation inhibition rate of compounds at each concentration. Curve fitting was performed via a four-parameter logistic model using GraphPad Prism software, and the GI50 value (the concentration of the compound when the proliferation inhibition rate was 50%) was calculated. In the formula, RLUcompound is the readout of the drug-treated group, RLUcontrol is the average value of the compound vehicle control group, and RLUBlank is the average value of the blank control group. [formula]

[1] = Mouse pharmacokinetic assay; type: in vivo, Balb/c mice; conditions: for pharmacokinetic properties: mouse
Method: 4.1. Experimental animals: Male Balb/c mice, about 22 g, 6-8 weeks old, 6 mice/compound. The animals were purchased from CHENGDU DOSSY EXPERIMENTAL ANIMALS CO., LTD.
4.2. Experimental design: On the day of the experiment, the Balb/c mice were randomly grouped according to their body weights. The animals were fasted with water available for 12-14 h one day before the administration, and were fed 4 h after the administration. Table 4. Administration information
Vehicle for intravenous administration: 5% DMA + 5% Solutol + 90% Saline; and vehicle for intragastric administration: 5% DMSO + 95% (20% SBE-β-CD in Saline)
Before and after the administration, 0.03 ml of blood was taken from the orbit under isoflurane anesthesia and placed in an EDTAK2 centrifuge tube. The tube was centrifuged at 5000 rpm at 4°C for 10 min, and plasma was collected. The blood collection time points for the intravenous administration group and intragastric administration group were as follows: 0, 2 min, 5 min, 15 min, 30 min, 1 h, 2 h, 4 h, and 7 h. Before analysis and detection, all samples were stored at - 80°C. Table 5. Pharmacokinetic parameters of test compounds in mouse plasma

CYP2C9 = molecular target: T1, CYP2C9 (Homo sapiens, UniProt P11712); assay: CYP450 enzyme activity inhibition assay, CYP2C9; type: in vitro ADME
T1 construct: co-incubated with human liver microsomes; from tissue; host or cells: human liver microsomes
Method: (§1) The purpose of this study was to evaluate the effects of the test compounds on the activities of five isoenzymes (CYP1A2, CYP2C9, CYP2C19, CYP2D6, and CYP3A4) of human liver microsomal cytochrome P450 (CYP) using an in vitro testing system. The specific probe substrates for each CYP450 isoenzyme were co-incubated with human liver microsomes and the test compounds at different concentrations, and reduced nicotinamide adenine dinucleotide phosphate (NADPH) was added to initiate the reaction. After the reactions were completed, the samples were treated, and liquid chromatography-tandem mass spectrometry (LC-MS/MS) was used to quantitatively detect metabolites produced by the specific substrates. The changes in CYP enzyme activities were determined, and the IC50 values were calculated to evaluate the inhibitory potential of the test compounds against each CYP enzyme subtype.

CYP2C19 = molecular target: T2, CYP2C19 (Homo sapiens, UniProt P33261); assay: CYP450 enzyme activity inhibition assay, CYP2C19; type: in vitro ADME
T2 construct: co-incubated with human liver microsomes; from tissue; host or cells: human liver microsomes
Method: as §1

CYP2D6 = molecular target: T3, CYP2D6 (Homo sapiens, UniProt P10635); assay: CYP450 enzyme activity inhibition assay, CYP2D6; type: in vitro ADME
T3 construct: co-incubated with human liver microsomes; from tissue; host or cells: human liver microsomes
Method: as §1

[2] = Beagle dog pharmacokinetic assay; type: in vivo, Beagle dogs; conditions: po; Beagle dog plasma, i.g. (3 mg/kg)
Method: 7.1. Experimental animals: Male Beagle dogs, about 8-13 kg, 6 Beagle dogs/compound.
7.2. Experimental method: On the day of the experiment, the Beagle dogs were randomly grouped according to their body weights. The animals were fasted with water available for 14-18 h one day before the administration, and were fed 4 h after the administration. The animals were administered according to Table 6. Table 6. Administration information
Note: Vehicle for intravenous administration: 5% DMA + 5% Solutol + 90% Saline; and vehicle for intragastric administration: 5% DMSO + 95% (20% SBE-β-CD in Saline) (DMA: dimethylacetamide; Solutol: polyethylene glycol-15-hydroxystearate; Saline: normal saline; and MC: methylcellulose)
Before and after the administration, 1 ml of blood was taken from the jugular veins or limb veins and placed in an EDTAK2 centrifuge tube. The tube was centrifuged at 5000 rpm at 4°C for 10 min, and plasma was collected. The blood collection time points for the intravenous administration group and intragastric administration group were as follows: 0, 5 min, 15 min, 30 min, 1 h, 2 h, 4 h, 6 h, 8 h, 10 h, 12 h, 24 h, and 48 h. Before analysis and detection, all samples were stored at -80°C. The samples were analyzed quantitatively by LC-MS/MS. Table 7. Pharmacokinetic parameters of test compounds in Beagle dog plasma

T1 sequence (P11712 whole entry): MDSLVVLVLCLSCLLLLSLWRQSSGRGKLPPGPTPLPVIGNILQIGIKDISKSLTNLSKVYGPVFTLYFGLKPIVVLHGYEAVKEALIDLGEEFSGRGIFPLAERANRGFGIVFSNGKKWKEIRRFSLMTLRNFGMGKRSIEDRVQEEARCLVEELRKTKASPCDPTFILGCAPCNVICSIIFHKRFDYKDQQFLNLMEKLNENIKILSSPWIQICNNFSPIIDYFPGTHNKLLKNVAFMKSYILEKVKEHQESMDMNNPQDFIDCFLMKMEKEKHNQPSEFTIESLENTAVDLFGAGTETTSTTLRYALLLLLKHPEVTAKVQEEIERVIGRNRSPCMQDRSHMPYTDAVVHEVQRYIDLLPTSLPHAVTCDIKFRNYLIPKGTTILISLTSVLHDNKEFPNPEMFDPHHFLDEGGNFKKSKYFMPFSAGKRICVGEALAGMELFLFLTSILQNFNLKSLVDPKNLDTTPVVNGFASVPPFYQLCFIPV
T3 sequence (P10635 whole entry): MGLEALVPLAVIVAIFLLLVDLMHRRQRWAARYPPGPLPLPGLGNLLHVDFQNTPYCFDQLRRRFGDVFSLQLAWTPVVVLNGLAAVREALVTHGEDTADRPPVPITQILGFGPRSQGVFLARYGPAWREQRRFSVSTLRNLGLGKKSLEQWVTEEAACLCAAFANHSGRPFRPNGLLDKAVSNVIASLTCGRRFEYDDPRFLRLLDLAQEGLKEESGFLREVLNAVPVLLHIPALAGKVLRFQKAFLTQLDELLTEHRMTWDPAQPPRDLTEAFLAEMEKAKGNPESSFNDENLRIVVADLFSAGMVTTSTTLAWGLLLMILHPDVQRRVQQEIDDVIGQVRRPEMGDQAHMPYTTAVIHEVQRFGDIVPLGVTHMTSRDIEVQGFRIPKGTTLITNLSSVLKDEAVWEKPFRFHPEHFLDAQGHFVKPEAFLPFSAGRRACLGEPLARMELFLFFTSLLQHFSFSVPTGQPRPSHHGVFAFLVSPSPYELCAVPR
T2 sequence (P33261 whole entry): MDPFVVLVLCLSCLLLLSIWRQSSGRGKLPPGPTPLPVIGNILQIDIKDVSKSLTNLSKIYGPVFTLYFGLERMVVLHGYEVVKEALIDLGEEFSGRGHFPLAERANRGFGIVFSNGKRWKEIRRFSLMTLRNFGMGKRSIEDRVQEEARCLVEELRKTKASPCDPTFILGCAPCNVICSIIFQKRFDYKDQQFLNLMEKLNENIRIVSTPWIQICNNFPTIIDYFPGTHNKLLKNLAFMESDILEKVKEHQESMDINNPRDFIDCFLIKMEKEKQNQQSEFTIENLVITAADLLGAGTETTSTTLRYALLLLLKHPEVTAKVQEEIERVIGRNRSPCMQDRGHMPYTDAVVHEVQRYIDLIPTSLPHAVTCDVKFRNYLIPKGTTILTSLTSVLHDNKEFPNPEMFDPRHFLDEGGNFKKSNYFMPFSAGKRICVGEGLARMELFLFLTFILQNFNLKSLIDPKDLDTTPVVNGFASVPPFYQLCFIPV

SMILES	IC50 (HT-29 cells) [µM]	pharmacokinetic properties ([1]; result in words)	IC50 (CYP2C9) [µM]	IC50 (CYP2C19) [µM]	IC50 (CYP2D6) [µM]	AUC(0-t) [2] [ng·h/mL]	AUC(0-t) ([1]; po, mouse plasma, i.g. (10 mg/kg)) [ng·h/mL]	bioavailability ([1]; po, mouse plasma, i.g. (10 mg/kg), read-out: F (%)) [%]	bioavailability ([1]; result in words, in mice)	exposure level ([1]; result in words, in mice)
Cc1ncnc(C(=O)N2CCN(c3c4n(c5nc(C6=CCOCC6)nn5c3=O)[C@@H](C(=O)Nc3ccc(C(F)(F)F)cc3Cl)CCC4)CC2)c1O [Compound 1-B]	≥ 10	favorable	> 30	> 30	> 30	19900				
Cc1ncnc(C(=O)N2CCN(c3c4n(c5nc(C6=CCOCC6)nn5c3=O)C(C(=O)Nc3ccc(C(F)(F)F)cc3Cl)CCC4)C[C@H]2C)c1O (single isomer, unassigned) [Compound 8-B]		favorable	> 30	> 30	> 30					
Cc1ncnc(C(=O)N2[C@@H](C)CN(c3c4n(c5nc(C6=CCOCC6)nn5c3=O)[C@@H](C(=O)Nc3ccc(C(F)(F)F)cc3Cl)CCC4)C[C@@H]2C)c1O [Compound 20-A]	≥ 10	favorable	> 30	> 30	> 30	19700	38500	93.4	good	high
